Key:
[1] = ref Comptox, PubChem or DrugBank; cited from earlier work
zebrafish embryos = tested on: zebrafish embryos; set-up: method as in earlier work; conditions: nominal, cited from earlier work
[2] = tested on: rat cardiomyoblast cells vs fish / zebrafish embryos; experiment: Potency ratios of the Rodrigues et al. data; conditions: bioavailable concentrations; embryo data chronic exposure 35 dpf

Compound | logKow [1] | pKa (Strongest Basic) [1] | other results
CCNc1nc(Cl)nc(NC(C)C)n1 [Atrazine] | 2.61 | 1.6 | –
CCOP(=S)(OCC)Oc1nc(Cl)c(Cl)cc1Cl [Chlorpyrifos] | 4.96 | -4.2 | Water Solubility [1]: 1.4 µg/mL
CCOP(=S)(OCC)Oc1cc(C)nc(C(C)C)n1 [Diazinon] | 3.81 | 4.2 | –
COP(=O)(OC)OC=C(Cl)Cl [Dichlorvos] | 1.43 | – | –
COCC(=O)Nc1cc(Sc2ccccc2)ccc1N/C(=N\C(=O)OC)NC(=O)OC [Febantel, febantel] | – | – | EC50 (zebrafish embryos; 144 hpf, converted): 761 nM; logEC50 144 hpf (zebrafish embryos; log10): -6.118 M
COP(=S)(OC)Oc1ccc([N+](=O)[O-])c(C)c1 [Fenitrothion] | 3.3 | – | –
Cl[C@H]1[C@H](Cl)[C@@H](Cl)[C@@H](Cl)[C@H](Cl)[C@H]1Cl [Lindane] | 3.72 | – | Water Solubility [1]: 7.3 µg/mL; potency ratio (Rodrigues et al. data) [2]: 13.6
CC1(C)C(C=C(Cl)Cl)C1C(=O)OCc1cccc(Oc2ccccc2)c1 (centres unmarked) [Permethrin] | 6.5 | -3.7 | –
CNC(=O)Oc1ccccc1OC(C)C [Propoxur] | 1.52 | -4.9 | pKa (Strongest Acidic) [1]: 14.8
CCNc1nc(Cl)nc(NC(C)(C)C)n1 [Terbuthylazine] | 3.21 | 2 | –
c1ccc2[nH]c(-c3cscn3)nc2c1 [Thiabendazole] | 2.47 | 4.6 | –
